Experiments:
[1] = test system: Escherichia coli; experiment: single molecule DNA damage analysis (visualization of damaged lesions in genomic DNA of agarose-embedded cells); type: cell-based, Escherichia coli K-12 MG1655
Procedure: Escherichia coli K-12 MG1655 cells were grown in 5 mL LB broths in a shaking incubator (220 rpm) at 37° C. for six hours. Bacterial cells were harvested by centrifugation (10,000×g, 10 min) and washed twice with 0.85% NaCl solution and re-suspended in the same solution. The cell-suspension was then diluted such that OD600 was approximately between 0.5 and 1 and used for subsequent reactions.
Bacterial suspension (OD600=0.5) was mixed with 2% LGT agarose solution and then dispensed as 20 μL droplets on a surface and solidified in the refrigerator (4° C.) for 10 minutes. […] After incubation, all these plugs were washed in 0.85% NaCl solution for half an hour.
After alcohol treatment, bacteria embedded agarose plugs were subjected to lysis with proteinase K solution (50 units in 500 μL, Tris 10 mM and EDTA 1 mM, pH 8.0 (1×TE)) at 42° C. for 150 min. The plugs were then washed in 1 mL 1×TE overnight. For removing oxidized base adducts, agarose plugs were incubated with a mixture of 10 units Fpg, 10 units Nfo, and 20 units Nei in NEB buffer2 (50 mM NaCl, 10 mM Tris-HCl, 10 mM MgCl2, 1 mM DTT, pH 7.9) at 37° C. for one hour. After enzyme treatment, the plugs were washed twice with 1 mL 1×TE buffer for half-an-hour. The plugs were then incubated with 5 units DNA Polymerase I, 1 mM AlexaFluor-647 labeled dUTP and dNTP mix (1 mM dATP, 1 mM dGTP, 100 μM dCTP, 100 μM dTTP) in the polymerase reaction buffer (50 mM Tris-HCl, 1 mM DTT, 10 mM MgCl2, pH 7.5) at 37° C. for one hour to label gaps or nicks. […] After nick translation, the plugs were washed three times in 1 mL 1×TE buffer for one hour. Then agarose plugs were melted in 400 μL 1×TE buffer at 65° C. for 15 min and stained with 1 μM YOYO-1.
A PDMS device was mounted on the positively charged surface. Then, the solution of DNA molecules melted from low gelling temperature agarose plug was loaded onto the entrance of the microfluidic channels. While the solution moved through the microchannels by capillary action, DNA molecules were elongated and deposited on the positively charged surface.

[2] = test system: Escherichia coli; conditions: 30 minutes incubation in ethanol

Compound: CCO [ethanol, Ethanol]
- number of DNA lesions corresponding to 17% ethanol ([1]; 17% ethanol, 30 minutes, glycosylase mix): 16.4 lesions/genome
- DNA length per one lesion at 17% ethanol ([1]; 17% ethanol, 30 minutes, glycosylase mix, one lesion per ~300 kb): ~300 kb
- increase in number of DNA lesions with every 1% increase in ethanol concentration ([1]; E. coli embedded agarose plug, 30 minutes incubation, ethanol 5%-40%, glycosylase mix (Fpg, Nfo, Nei), linear fit r^2=0.98): 0.88 lesions/genome
- labels per genome, ethanol incubation without glycosylase treatment ([1]; without glycosylase treatment (triangles in FIG. 2A), 30 minutes incubation): 1.1-1.4 labels per genome
- ethanol concentration above which bacterial cells could not survive [2]: above 17%
